Assay results from a melting point compilation (Tetko et al.; mined from patent text by program, amines drawn as free bases though some values may be those of a salt).

SMILES | melting point [°C]
N#Cc1c(Cl)cccc1C(Br)Br | 120
CCOC(=O)COc1nnc(-c2ccc3c(c2)CCO3)o1 | 103 to 104
Cc1ccc(-c2cccc(C(N)=O)c2)cc1 | 200 to 205
CNC(=O)ON=C1N=C(C)C(C)(CC(C)C)S1 (stereo not given) | 99 to 101
NC(=S)c1ccc2c(c1)Nc1ccccc1S2 | 208 to 209
NNc1nnc(C=Cc2ccc([N+](=O)[O-])o2)s1 | 205 to 206
CCCCCCCCCCCCC(=O)/C=C/C(=O)O | 97.5 to 98.5
OCC[Si](c1ccccc1)(c1ccccc1)c1ccccc1 | 96 to 97
CC(C)(C)c1cc(C(=O)c2ccco2)cc2c1OCC2(C)C | 103 to 104
NCCCCn1cnc2c(N)nc3cccnc3c21 | 161 to 163
Cc1c(SCCCSc2ncccn2)ccnc1CNc1cnc2ccccc2c1 | 132 to 133
CC(C)(C)c1cc(Cl)nc(N)n1 | 87.7 to 88.9
O=C1CCNc2nc(Br)ccc21 | 196 to 197
O=C(O)C(=O)CC(=O)c1cccn1CCCCc1ccccc1 | 119 to 121
Cc1cc(Cl)cc(C(=O)NCC2CC2)c1NC(=O)c1cc(Br)nn1-c1ncccc1Cl | 166 to 168
COc1cccc(-c2cc3ccc(C#N)cc3o2)c1 | 148 to 150
NS(=O)(=O)c1ccccc1CCCl | 168 to 171
CCOP(=O)(/C=C/c1cn(-c2ccccc2)nc1OCc1ccc(OCc2nc(N3CCCCC3)sc2C)c(OC)c1)OCC | 95 to 96
COc1ccc(N2CC(CN3CCC(O)(c4ccc(Cl)cc4)CC3)OC2=O)cc1 (stereo not given) | 143 to 144
Nc1ccc(C(=O)NCCNC(=O)c2ccc(N)cc2)cc1 | 294 to 295
COC(=O)c1ccc(OCC(C)NCC(O)c2ccc(O)c(CO)c2)cc1 (stereo not given) | 60 to 68
CC(=O)OC1CC(OC(C)=O)C2(C)C(C1)C(Br)C(Br)C1C3CCC(C(C)CCCC(C)C)C3(C)CCC12 (stereo not given) | 155 to 156
COC(CN1CCN(c2ccc(F)cc2)CC1)CN1c2cccc3cccc(c23)S1(=O)=O (stereo not given) | 128

SMILES | melting point [°C]
CCN1c2ncccc2C(=O)N(C)c2ccc(-c3c[nH]c(C(=O)O)c3)nc21 | 256 to 257
CCCCCCCCCCCCCCCCCC(CCC(=O)O)[N+](=O)[O-] (stereo not given) | 55 to 56
CC(C)(C)c1cc(N2CCCC2=O)cc(C(C)(C)C)c1O | 173 to 175
O=C(NC1CCC1)c1ccc2nonc2c1 | 175 to 176
CCCCCCCCCCCCOc1ccc(-c2cc3ccccc3[nH]2)cc1 | 204
COc1nc(SC)nc(OC)c1C=CC(C)=O | 112
Brc1cccc(OCc2ccc3ccccc3c2)n1 | 67 to 69
Cc1ccc(-c2cc(F)c(F)cc2-c2ccc(S(C)(=O)=O)cc2)cc1 | 147 to 148
Cn1cc(-c2cccc(Cl)c2)c(=S)c(-c2cccc(Cl)c2)c1 | 210 to 212
Cc1nc(-c2cccnc2)sc1-c1ccnc(Nc2ccc(N3CCOCC3)cc2)n1 | 240 to 242
C#CCNC(=O)c1ncn2c1[C@@H]1CCN1C(=O)c1sccc1-2 | 233 to 235
NS(=O)(=O)c1ccc(N2CCN(Cc3cn4cc(Cl)ccc4n3)CC2)cc1 | 255 to 256
O=C(CCN1C(=O)CSC1=S)Nc1ccccc1O | 168 to 170
Clc1ncc(Br)c(NC2CCCC2)n1 | 95 to 96
CSc1cncc(-c2nc(=O)c3ccccc3s2)n1 | 202 to 203
Cc1cc(S)n2nc(C(=O)O)nc2n1 | 215 to 217
CC(C)(C)CN(CC(O)C(Cc1ccccc1)NC(=O)C(CC(N)=O)NC(=O)c1ccc2ccccc2n1)C(=O)NC(C)(C)C (stereo not given) | 115 to 117
CCCN(CCC)C1Cc2cccc3ccc(=O)n(c23)C1 (stereo not given) | 82 to 84
CN(C)Cc1c(-c2ccc(O)cc2)[nH]c2ncnc(Nc3cccc(Cl)c3)c12 | 269 to 271
CCCCC(=O)Nc1ccc(Cl)c(-n2nc(CCCC)c(Cc3ccc(-c4ccccc4S(=O)(=O)NC(=O)c4ccccc4Cl)cc3)c2C(=O)O)c1 | > 110
CCCCCCCCCCCCCCCC(=O)C1(O)OC(COCc2ccccc2)C(OCc2ccccc2)C(OCc2ccccc2)C1OCc1ccccc1 (stereo not given) | 52 to 53
O=C(O)C(CC(=O)N1CCOCC1)Oc1ccccc1 (stereo not given) | 150 to 151
NC(=O)c1c(Cl)c(-c2ccccc2)n2c1CN(S(=O)(=O)c1ccc(-c3ccon3)s1)CC2 | 186 to 190

SMILES | melting point [°C]
CCCCCCS(=O)(=O)c1nn2c(=O)cc(C#N)nc2s1 | 144 to 146
Cc1cc(C)c(NC(=O)N(Cc2cc3ccccc3c3ccccc23)C2CCCCC2)c(C)c1 | 125 to 128
CN(c1cccc2cc(-c3ncc(CCc4nn[nH]n4)s3)[nH]c12)S(=O)(=O)c1cccs1 | 211 to 212
CCn1ncc2c3noc(-c4ccc(C)cc4)c3cnc21 | 221 to 222
CCC(CC)c1cccc(C[C@H]2C(=O)O[C@H](c3ccccc3)[C@H](c3ccccc3)N2C(=O)OC(C)(C)C)c1 | 143 to 144
Cc1c(C)c2c(c(C)c1O)C(C(=O)O)C(C)(C)O2 (stereo not given) | 161 to 164
N#Cc1cccc(-n2ncc(C(=O)O)c2C#N)c1 | 190 to 192
Cc1ccc(S(=O)(=O)n2cncn2)cc1 | 105 to 107
O=C(NC1CCC(CCN2CCN(c3nccc4c3OCC4)CC2)CC1)C1CCCOC1 (racemic) | 203
C=CCc1cc2c(c(CC=C)c1O)CCC(=O)N2CCO | 106 to 108
CCCN(CCC)c1nsc(N)c1C#N | 136 to 138
COc1ccc(Cc2nc(C)c[nH]2)cc1 | 108 to 109
O=C(NO)[C@H]1CN(C(=O)NC2CCCCC2)CCN1S(=O)(=O)c1ccc(-c2ccc(F)cc2)s1 | 111 to 123
O=C(O)CCc1ccc(C(=O)CN2CCN(c3ccncc3)CC2)cc1 | 245 to 247
O=C(O)c1ccc(Cl)cc1Cc1ccccc1 | 142 to 144
CC(=O)CSc1ccc(S(C)(=O)=O)cc1 | 95 to 97
CNCCC1CCc2cc(OCc3ccc(-c4ccccc4)cc3)ccc2C1 (stereo not given) | 75 to 76
Cc1cc(F)ccc1-c1ccc(S(=O)(=O)N2c3ccccc3CC2C(=O)NCCOc2ccc(C(=O)O)cc2)cc1 (stereo not given) | 96
CC(=O)NC(C(=O)Nc1ccc(C(=O)OCc2ccccc2)cc1)c1ccc2c(c1)C(C)(C)CCC2(C)C (stereo not given) | 258 to 259
CCOC(=O)C(NC(=O)OC(C)(C)C)c1csc(NC(=O)OCC(Cl)(Cl)Cl)n1 (stereo not given) | 94 to 95
NS(=O)(=O)c1nc(-c2ccccc2F)ns1 | 177 to 179
O=C(O)C(=O)c1ccc(OCC(=O)N2CCOCC2)cc1 | 182 to 184

Further lines, results first:

melting point [°C] | SMILES
115 to 117 | CC(C)(C)c1ccc2c(c1)C(C(=O)Nc1c(Cl)cccc1Cl)c1ccccc1CO2 (stereo not given)
54 to 57 | COc1cc(C(C)C(=O)NCC(COC(=O)C(C)(C)C)Cc2ccc(C)c(C)c2)ccc1NS(C)(=O)=O (stereo not given)
297 to 299 | Cc1[nH]c(=O)c(C#N)cc1-c1ccccc1OCC(=O)O
110 to 112 | Cc1nnc(C=Cc2ccccc2OCC(O)CNC(C)(C)C)s1 (stereo not given)
164 to 165 | CC(C)(C)n1c(=O)n(-c2ccnc(NC(=O)NCc3ccccn3)c2)c2ccccc21
80 | COc1ccc(CCc2ccc(C(F)(F)F)cc2)cc1
105 to 107 | CN(C)c1nn(-c2c(Cl)cc(C(F)(F)F)cc2Cl)c(=O)n1C
69 to 71 | C=CCc1c(C(C)C)nc(C(C)C)c(CO)c1-c1ccc(F)cc1
240 to 244 | COc1ccc(Cn2c(N)c(NC(=O)C(C)C)c(=O)[nH]c2=S)cc1OCc1ccccc1
116 to 117 | CCOC(=O)COc1cc2c(cc1Cl)C(=O)CC1(CCCCC1)O2
193 to 195 | CCc1nnc2c(NC(C)=O)nc3ccccc3n12
101 to 102 | CC(=O)Oc1cnc2c(OC(C)=O)cccc2c1
> 250 | CC(=O)Nc1nc(O)c2cc(C=C(C)c3ccc(C(=O)O)cc3)cnc2n1
152 to 153 | CC(C)(C)c1cc(C(C)(C)C)n(Cc2ccc(COc3ccc(CCC(=O)O)c(F)c3)cc2)n1
117 to 120 | COc1cccc(C=CC(=O)CC(=O)C=Cc2cccc(OC)c2OC)c1OC
142 to 143 | Cc1ccc(-n2nc(C(C)(C)C)cc2NC(=O)Nc2ccc(OCCN3CCOCC3)c3ccccc23)cc1

melting point [°C] | SMILES
96 to 98 | Cc1ccc(C)c(C(=O)C=Cc2ccccc2C(=O)Cl)c1
100 to 103 | COC(=O)c1c(NCC(C)C)n[nH]c1C
162 to 163 | N#Cc1ccc(C=NO)c([N+](=O)[O-])c1
244 to 246 | O=C1CCC(N2Cc3cc(CNC(=O)c4cccc(C(F)(F)F)c4)ccc3C2=O)C(=O)N1 (stereo not given)
40 to 42 | CCOC(=O)/C(CC(=O)O)=C(\c1ccc(Cl)cc1)c1ccc(S(C)(=O)=O)cc1
172 to 174 | COc1ccc(C2=NN(c3cnc4ccccc4n3)C(=O)[C@H]3CC=CC[C@@H]23)cc1Cl (relative stereo)
220 to 222 | COc1ccc(OC)c(C=C2CCn3c2nc2ccc(Cl)cc2c3=O)c1
179 to 180 | O=C(O)c1cccc(-c2cccn3cc(Cc4cccc(C(F)(F)F)c4)nc23)c1
164 to 168 | O=C(NC(Cc1ccccc1)c1ncc(C(F)(F)F)cc1Cl)c1c(Cl)cccc1Cl (stereo not given)
157 to 158 | C[C@]1(CN2CCN(C3CCN(CC=Cc4ccc(OC(F)(F)F)cc4)CC3)CC2)Cn2cc([N+](=O)[O-])nc2O1
173 | O=[N+]([O-])c1c(Cl)cc(Cl)cc1-c1n[nH]cc1Cl
89 to 91 | Cc1c(Cl)c(Oc2ccc(C(F)(F)F)cc2[N+](=O)[O-])nn1C(=O)NC(C)C
210 to 212 | Cc1cc([N+](=O)[O-])cc2c(Cl)c(C#N)cnc12
170 | Cc1ccc(=NC(=O)C(F)(F)F)n(Cc2ccc(Cl)s2)c1
123 to 126 | CCOc1cc(OCC)c2c(C)c(CCCl)c(=O)oc2c1
52 | CCN(CC)C(=O)c1cc(-c2ccc(C)cc2)nc2ccccc12
